Series [1] has as its target human norepinephrine transporter (Homo sapiens (Human), UniProt P23975). Nature of the series: Human NET (norepinephrine transporter) uptake assay. The note with it: read-out: hNET Ki. Format: cell-based. Summed up:
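HEK293F cells transfected with human NET were thawed, plated at about 60,000 cells/well and held at 37 °C for at least 3 h. Compounds came from 10 mM DMSO stocks, with nomifensine as control, in 1×HBSS/0.02 M HEPES. Uptake was followed with a neurotransmitter transporter dye, dosed as % of vendor reconstitution, in triplicate.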

Series [2] addresses human dopamine transporter (Homo sapiens (Human), UniProt Q01959). Nature of the series: Human DAT (dopamine transporter) uptake assay. The format is cell-based. The note with it: read-out: hDAT Ki. Summed up:
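Uptake inhibition was measured in HEK293F cells transfected with human DAT, plated at ~60,000 cells/well and settled ≥3 h at 37 °C. Compounds came from 10 mM DMSO stocks. Read-out was uptake of a fluorescent neurotransmitter transporter dye in HBSS with 0.02 M HEPES, with dye level given as % of vendor reconstitution; n=3.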

For series [3], the target named is human serotonin transporter (Homo sapiens (Human), UniProt P31645). The series can be described thus: Human SERT (serotonin transporter) uptake assay. The format is cell-based. The note with it: read-out: hSERT Ki. A digest of the protocol:
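HEK293F cells transfected with human SERT, about 60,000 per well, settled for ≥3 h at 37° C before compound addition. Uptake was followed with a fluorescent transporter dye in HBSS with 0.02 M HEPES. Background came from 10 μM fluoxetine, nomifensine was the control, n=3.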

A further series deals with hERG (Homo sapiens (Human), UniProt Q12809). Nature of the series: Human ERG (hERG) assay, hERG currents in hERG-expressing CHO cells. The format is cell-based. The note with it: hERG-expressing CHO cells.
Chain of hERG (Q12809 whole entry): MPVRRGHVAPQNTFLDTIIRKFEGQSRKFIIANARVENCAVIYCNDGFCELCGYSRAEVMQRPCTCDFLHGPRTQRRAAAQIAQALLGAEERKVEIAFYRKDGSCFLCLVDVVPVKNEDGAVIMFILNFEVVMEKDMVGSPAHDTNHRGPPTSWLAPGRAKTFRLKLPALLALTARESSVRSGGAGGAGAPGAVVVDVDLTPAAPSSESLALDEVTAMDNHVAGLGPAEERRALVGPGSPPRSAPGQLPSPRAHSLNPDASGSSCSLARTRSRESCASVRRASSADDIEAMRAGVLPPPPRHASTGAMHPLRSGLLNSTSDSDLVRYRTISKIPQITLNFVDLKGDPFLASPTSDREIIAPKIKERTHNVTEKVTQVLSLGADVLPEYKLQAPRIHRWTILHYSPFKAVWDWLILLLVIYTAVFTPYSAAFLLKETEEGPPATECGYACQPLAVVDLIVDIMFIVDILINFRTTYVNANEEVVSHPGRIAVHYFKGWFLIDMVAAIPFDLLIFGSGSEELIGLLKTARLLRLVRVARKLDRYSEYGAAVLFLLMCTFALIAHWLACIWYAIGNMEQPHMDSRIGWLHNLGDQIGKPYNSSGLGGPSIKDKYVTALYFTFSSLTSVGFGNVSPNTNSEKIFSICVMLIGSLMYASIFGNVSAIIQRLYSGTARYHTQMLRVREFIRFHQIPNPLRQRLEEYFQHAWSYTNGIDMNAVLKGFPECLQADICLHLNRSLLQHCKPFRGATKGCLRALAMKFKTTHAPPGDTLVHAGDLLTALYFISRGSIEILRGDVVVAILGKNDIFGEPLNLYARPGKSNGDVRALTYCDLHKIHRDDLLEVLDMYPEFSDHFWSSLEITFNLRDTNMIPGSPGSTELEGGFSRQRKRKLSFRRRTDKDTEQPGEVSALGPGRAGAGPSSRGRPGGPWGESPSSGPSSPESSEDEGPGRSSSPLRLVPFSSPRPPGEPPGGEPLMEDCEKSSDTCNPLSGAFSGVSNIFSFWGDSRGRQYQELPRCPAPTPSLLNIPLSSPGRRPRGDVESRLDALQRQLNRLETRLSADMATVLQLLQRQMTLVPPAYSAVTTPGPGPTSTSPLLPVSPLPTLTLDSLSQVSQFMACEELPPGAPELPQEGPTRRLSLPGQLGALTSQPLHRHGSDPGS
A further series addresses CYP3A4 (Homo sapiens (Human), UniProt P08684). The series can be described thus: Cytochrome P450 inhibition assay, recombinant CYP3A4 (BFC substrate). The format is in vitro ADME. The note with it: recombinant enzyme.
Another series concerns the target CYP2D6 (Homo sapiens (Human), UniProt P10635). Nature of the series: Cytochrome P450 inhibition assay, recombinant CYP2D6 (MAMC substrate). The note with it: recombinant enzyme. Format: in vitro ADME.
Series [4] in a line: pKa of basic centres (Table 1). The format is physicochemical. The note with it: first base, e.g., an aliphatic primary, secondary, or tertiary amine; read-out: pKa (Base 1).

Molecules are shown by their SMILES.

Chain of human dopamine transporter (Q01959 whole entry): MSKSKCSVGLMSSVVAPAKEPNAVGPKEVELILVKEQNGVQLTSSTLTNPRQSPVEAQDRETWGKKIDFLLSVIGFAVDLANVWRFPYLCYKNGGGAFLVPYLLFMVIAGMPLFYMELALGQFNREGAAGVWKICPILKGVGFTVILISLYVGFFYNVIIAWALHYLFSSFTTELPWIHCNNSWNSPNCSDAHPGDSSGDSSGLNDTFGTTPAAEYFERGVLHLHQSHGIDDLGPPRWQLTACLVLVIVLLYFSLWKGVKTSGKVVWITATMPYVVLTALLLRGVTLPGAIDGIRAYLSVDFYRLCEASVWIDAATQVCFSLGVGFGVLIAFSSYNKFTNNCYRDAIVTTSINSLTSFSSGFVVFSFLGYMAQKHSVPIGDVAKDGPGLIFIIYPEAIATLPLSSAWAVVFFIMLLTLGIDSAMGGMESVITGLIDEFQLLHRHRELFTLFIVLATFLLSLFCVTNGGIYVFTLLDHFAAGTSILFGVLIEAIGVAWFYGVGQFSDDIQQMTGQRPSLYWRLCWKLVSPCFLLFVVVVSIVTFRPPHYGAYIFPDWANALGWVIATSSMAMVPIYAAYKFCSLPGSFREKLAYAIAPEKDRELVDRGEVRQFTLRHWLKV
Chain of CYP3A4 (P08684 whole entry): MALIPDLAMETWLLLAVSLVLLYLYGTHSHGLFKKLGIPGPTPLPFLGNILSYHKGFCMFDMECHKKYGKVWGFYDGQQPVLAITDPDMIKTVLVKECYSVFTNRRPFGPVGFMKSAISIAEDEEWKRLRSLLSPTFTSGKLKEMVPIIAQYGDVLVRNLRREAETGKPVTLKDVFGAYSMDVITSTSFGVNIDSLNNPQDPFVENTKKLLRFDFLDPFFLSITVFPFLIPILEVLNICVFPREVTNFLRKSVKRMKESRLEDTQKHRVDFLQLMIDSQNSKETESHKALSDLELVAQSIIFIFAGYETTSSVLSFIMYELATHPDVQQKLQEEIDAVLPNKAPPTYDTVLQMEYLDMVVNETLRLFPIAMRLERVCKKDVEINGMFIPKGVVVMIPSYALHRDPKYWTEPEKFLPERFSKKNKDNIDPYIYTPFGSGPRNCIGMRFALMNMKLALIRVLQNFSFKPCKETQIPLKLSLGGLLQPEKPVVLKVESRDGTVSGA
Chain of human norepinephrine transporter (P23975 whole entry): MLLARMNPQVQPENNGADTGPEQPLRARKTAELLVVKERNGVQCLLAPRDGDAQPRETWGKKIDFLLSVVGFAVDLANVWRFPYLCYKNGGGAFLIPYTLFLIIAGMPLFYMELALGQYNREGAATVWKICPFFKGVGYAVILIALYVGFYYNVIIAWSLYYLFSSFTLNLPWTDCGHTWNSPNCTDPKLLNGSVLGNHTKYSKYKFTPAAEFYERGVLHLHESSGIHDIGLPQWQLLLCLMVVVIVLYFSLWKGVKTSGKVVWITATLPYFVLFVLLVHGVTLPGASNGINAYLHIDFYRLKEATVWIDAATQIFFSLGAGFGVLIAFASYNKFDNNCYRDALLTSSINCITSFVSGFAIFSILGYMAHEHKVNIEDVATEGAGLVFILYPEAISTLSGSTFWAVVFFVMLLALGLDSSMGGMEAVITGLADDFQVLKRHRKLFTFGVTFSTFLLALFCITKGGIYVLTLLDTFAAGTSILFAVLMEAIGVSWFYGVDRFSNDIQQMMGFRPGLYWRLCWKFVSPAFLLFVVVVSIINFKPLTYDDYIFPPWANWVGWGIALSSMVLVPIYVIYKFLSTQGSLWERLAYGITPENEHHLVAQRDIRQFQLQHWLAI
Chain of human serotonin transporter (P31645 whole entry): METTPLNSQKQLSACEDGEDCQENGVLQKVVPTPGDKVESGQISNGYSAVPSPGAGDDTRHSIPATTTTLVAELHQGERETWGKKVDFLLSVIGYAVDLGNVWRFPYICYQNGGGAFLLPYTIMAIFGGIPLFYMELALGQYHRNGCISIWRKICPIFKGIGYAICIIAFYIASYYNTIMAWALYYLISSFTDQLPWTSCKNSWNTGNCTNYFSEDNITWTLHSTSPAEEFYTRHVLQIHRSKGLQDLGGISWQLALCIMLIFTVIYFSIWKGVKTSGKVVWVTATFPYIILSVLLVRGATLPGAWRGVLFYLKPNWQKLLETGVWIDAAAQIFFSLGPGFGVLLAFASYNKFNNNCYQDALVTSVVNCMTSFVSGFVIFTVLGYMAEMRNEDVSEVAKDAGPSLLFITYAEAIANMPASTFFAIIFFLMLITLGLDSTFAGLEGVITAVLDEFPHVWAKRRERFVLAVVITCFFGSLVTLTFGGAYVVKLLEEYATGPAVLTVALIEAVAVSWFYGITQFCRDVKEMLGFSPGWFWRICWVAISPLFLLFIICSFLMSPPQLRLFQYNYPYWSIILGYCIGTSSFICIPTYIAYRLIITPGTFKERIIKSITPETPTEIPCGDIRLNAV
Chain of CYP2D6 (P10635 whole entry): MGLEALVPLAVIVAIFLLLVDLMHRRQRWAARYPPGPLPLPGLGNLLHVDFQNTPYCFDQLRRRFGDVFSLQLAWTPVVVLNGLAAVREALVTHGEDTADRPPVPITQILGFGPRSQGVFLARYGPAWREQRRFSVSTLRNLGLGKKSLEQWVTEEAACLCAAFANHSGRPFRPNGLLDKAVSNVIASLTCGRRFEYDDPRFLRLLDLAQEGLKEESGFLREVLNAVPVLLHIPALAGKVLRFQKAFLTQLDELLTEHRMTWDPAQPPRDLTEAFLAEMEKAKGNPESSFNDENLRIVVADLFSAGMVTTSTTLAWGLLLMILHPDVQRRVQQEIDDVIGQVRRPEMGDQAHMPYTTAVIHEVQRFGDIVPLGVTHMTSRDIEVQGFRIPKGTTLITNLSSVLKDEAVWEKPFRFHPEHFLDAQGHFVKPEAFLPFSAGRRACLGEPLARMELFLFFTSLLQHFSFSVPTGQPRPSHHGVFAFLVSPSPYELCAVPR
Description for CYP2D6: Recombinant enzymes, 3A4 and 2D6, generated using the ABL yeast expression system were used. […] The assay mixture also included K2HPO4 (pH 7.4; conc. 0.1 M) and NADPH (conc. 1 mM). The incubation time was 30 minutes, and the reference inhibitor was A-naphthoflavone. For CYP2D6, the enzyme amount was 2 pmol per well, and the substrate (7-methoxy-4-(aminomethyl)-coumarin; MAMC) was used at 20 μM. The assay mixture also included K2HPO4 (pH 7.4; conc. 0.1 M) and NADPH (conc. 0.06 mM). The incubation time was 35 minutes, and the reference inhibitor was quinidine.
Briefly, 0.6 μL of serially diluted compound was added to 75 μL water. 10 μL of diluted compound in water was then added to each assay plate. 20 μL of a K2HPO4, enzyme, and substrate mixture was added. After 10 minutes of room temperature pre-incubation, 10 μL of NADPH was added, and the plates were placed at 37° C. for 30 or 35 minutes depending on the enzyme being tested. After the incubation was complete, 20 μL of 0.1% Tris/ACN was added to the plate. The plate was read on a FluorStar fluorescence plate reader.

Broadly, the Ki is a dissociation constant, usually derived from enzyme kinetics or from competition with a known ligand. In general, IC50 refers to the point on the concentration scale where inhibition reaches its midpoint. By pKa is commonly meant the negative logarithm of the acid dissociation constant. As to `CNC[C@H](c1ccc(Cl)c(Cl)c1)[C@H](O)c1ccccc1SC` [Compound 156], the Ki in series [1] turned out to be 17.2 nM; in series [2], 48.5 nM; in series [3], 22.4 nM. The figures for the IC50 at hERG, at CYP3A4 and on CYP2D6 were 4100 nM, 9500 nM and 170 nM, respectively. For the same compound, the pKa in series [4] was 9.4.
Consider `CCc1ccccc1[C@@H](O)[C@H](CNC)c1ccc(Cl)c(Cl)c1` [Compound 158], for which the results for the Ki in series [1], in series [2] and in series [3] were 6.3 nM, 55.4 nM and 38.6 nM, respectively. Also, the values for the IC50 at hERG, at CYP3A4 and at CYP2D6 were 4400 nM, 3800 nM and 98 nM, respectively. Moreover, in series [4], the pKa is 9.4.
Turning to `CNC[C@H](c1ccc(Cl)c(Cl)c1)[C@H](O)c1ccccc1OC` [Compound 160], the Ki was 9.1 nM in series [1], 83.5 nM in series [2] and 9.2 nM in series [3]. Besides, the 50% inhibitory concentration (IC50) at hERG worked out at 8000 nM; on CYP3A4, 3500 nM; at CYP2D6, 490 nM. Moreover, the pKa in series [4] was 9.4.
With `CNC[C@H](c1ccc(Cl)c(Cl)c1)[C@H](O)c1ccccc1I` [Compound 164], the values for the Ki in series [1], in series [2] and in series [3] were 41.6 nM, 113 nM and 78.1 nM, respectively. For the same compound, the IC50 was found to be 4100 nM at hERG, 5300 nM on CYP3A4 and 250 nM at CYP2D6. For the same compound, in series [4], the pKa turned out to be 9.4.
For the compound `CNC[C@H](c1ccc(Cl)c(Cl)c1)[C@@H](O)c1cccc(I)c1` [Compound 165], the Ki stood at 38.6 nM in series [1], 118 nM in series [2] and 341 nM in series [3]. In addition, the IC50 at hERG was 3800 nM; at CYP3A4 it was 2900 nM; at CYP2D6, 81 nM. For the same compound, the pKa in series [4] was 9.4.
In the case of `CNC[C@H](c1ccc(Cl)c(Cl)c1)[C@H](O)c1cccc(OC)n1` [Compound 167], the Ki in series [1] was 10.8 nM; in series [2], 132 nM; in series [3], 18.8 nM. For the same compound, the IC50 against hERG came out at 12000 nM; at CYP3A4 it was 20000 nM; at CYP2D6, 400 nM. In addition, the pKa in series [4] worked out at 9.2.
In the case of `CNC[C@@H](c1ccc(Cl)c(Cl)c1)[C@@H](OC)c1cccc(NS(=O)(=O)C(F)(F)F)c1` [Compound 172], the Ki in series [1] was 625 nM; in series [2] it was 102 nM; in series [3] it was 1260 nM. The IC50 on hERG was 4700 nM; at CYP3A4 it was 200 nM; at CYP2D6, 970 nM. The pKa in series [4] is 9.4.

For the origin of these results see US9944618B2, “Inhibiting neurotransmitter reuptake” (Mayo Foundation for Medical Education and Research, priority 2013, dated 2018).
